Measured values as given in US12522583B2, “Benzimidazole derivatives and aza-benzimidazole derivatives as Janus kinase 2 inhibitors and uses thereof” (Dana-Farber Cancer Institute, Inc., priority 2018, dated 2026).

Assays:
Assay in all cases: KINOMEscan
Format in all cases: binding
Settings in all cases: read-out: percent control
[1] = target: ABL1(T315I)-phosphorylated (Homo sapiens (Human), UniProt P00519, T315I)
Text: (§1) Example 2. In Vitro Kinase Selectivity Profiling of the Compounds of the Present Disclosure

[2] = target: BRAF(V600E) (Homo sapiens (Human), UniProt P15056, V600E)
Text: as §1

[3] = target: BRK (Homo sapiens (Human), UniProt Q13882)
Text: as §1

[4] = target: DCAMKL3 (Homo sapiens (Human), UniProt Q9C098)
Text: as §1

[5] = target: EPHA2 (Homo sapiens (Human), UniProt P29317)
Text: as §1

[6] = target: FAK (Homo sapiens (Human), UniProt Q05397)
Text: as §1

[7] = target: FES (Homo sapiens (Human), UniProt P07332)
Text: as §1

[8] = target: FGFR3 (Homo sapiens (Human), UniProt P22607)
Text: as §1

[9] = target: GRK1 (Homo sapiens (Human), UniProt Q15835)
Text: as §1

[10] = target: GRK2 (Homo sapiens (Human), UniProt P25098)
Text: as §1

[11] = target: HPK1 (Homo sapiens (Human), UniProt Q92918)
Text: as §1

[12] = target: HUNK (Homo sapiens (Human), UniProt P57058)
Text: as §1

[13] = target: IRAK1 (Homo sapiens (Human), UniProt P51617)
Text: as §1

[14] = target: KIT(D816H) (Homo sapiens (Human), UniProt P10721, D816H)
Text: as §1

[15] = target: KIT(L576P) (Homo sapiens (Human), UniProt P10721, L576P)
Text: as §1

[16] = target: LOK (Homo sapiens (Human), UniProt O94804)
Text: as §1

[17] = target: MAK (Homo sapiens (Human), UniProt P20794)
Text: as §1

[18] = target: MAP3K3 (Homo sapiens (Human), UniProt Q99759)
Text: as §1

[19] = target: MARK4 (Homo sapiens (Human), UniProt Q96L34)
Text: as §1

[20] = target: MELK (Homo sapiens (Human), UniProt Q14680)
Text: as §1

[21] = target: MTOR (Homo sapiens (Human), UniProt P42345)
Text: as §1

[22] = target: MYO3A (Homo sapiens (Human), UniProt Q8NEV4)
Text: as §1

[23] = target: NDR2 (Homo sapiens (Human), UniProt Q9Y2H1)
Text: as §1

[24] = target: NEK1 (Homo sapiens (Human), UniProt Q96PY6)
Text: as §1

[25] = target: NEK2 (Homo sapiens (Human), UniProt P51955)
Text: as §1

[26] = target: PAK4 (Homo sapiens (Human), UniProt O96013)
Text: as §1

[27] = target: PCTK2 (Homo sapiens (Human), UniProt Q00537)
Text: as §1

[28] = target: PCTK3 (Homo sapiens (Human), UniProt Q07002)
Text: as §1

[29] = target: PIK3C2B (Homo sapiens (Human), UniProt O00750)
Text: as §1

[30] = target: PIK3CA(M1043I) (Homo sapiens (Human), UniProt P42336, M1043I)
Text: as §1

[31] = target: PKMYT1 (Homo sapiens (Human), UniProt Q99640)
Text: as §1

[32] = target: PLK3 (Homo sapiens (Human), UniProt Q9H4B4)
Text: as §1

[33] = target: PRKCD (Homo sapiens (Human), UniProt Q05655)
Text: as §1

[34] = target: PRP4 (Homo sapiens (Human), UniProt Q13523)
Text: as §1

[35] = target: RET (Homo sapiens (Human), UniProt P07949)
Text: as §1

[36] = target: SRPK2 (Homo sapiens (Human), UniProt P78362)
Text: as §1

[37] = target: STK36 (Homo sapiens (Human), UniProt Q9NRP7)
Text: as §1

[38] = target: STK39 (Homo sapiens (Human), UniProt Q9UEW8)
Text: as §1

[39] = target: TBK1 (Homo sapiens (Human), UniProt Q9UHD2)
Text: as §1

[40] = target: ULK1 (Homo sapiens (Human), UniProt O75385)
Text: as §1

[41] = target: p38-alpha (Homo sapiens (Human), UniProt Q16539)
Text: as §1

Sequence of HPK1 (Q92918 whole entry): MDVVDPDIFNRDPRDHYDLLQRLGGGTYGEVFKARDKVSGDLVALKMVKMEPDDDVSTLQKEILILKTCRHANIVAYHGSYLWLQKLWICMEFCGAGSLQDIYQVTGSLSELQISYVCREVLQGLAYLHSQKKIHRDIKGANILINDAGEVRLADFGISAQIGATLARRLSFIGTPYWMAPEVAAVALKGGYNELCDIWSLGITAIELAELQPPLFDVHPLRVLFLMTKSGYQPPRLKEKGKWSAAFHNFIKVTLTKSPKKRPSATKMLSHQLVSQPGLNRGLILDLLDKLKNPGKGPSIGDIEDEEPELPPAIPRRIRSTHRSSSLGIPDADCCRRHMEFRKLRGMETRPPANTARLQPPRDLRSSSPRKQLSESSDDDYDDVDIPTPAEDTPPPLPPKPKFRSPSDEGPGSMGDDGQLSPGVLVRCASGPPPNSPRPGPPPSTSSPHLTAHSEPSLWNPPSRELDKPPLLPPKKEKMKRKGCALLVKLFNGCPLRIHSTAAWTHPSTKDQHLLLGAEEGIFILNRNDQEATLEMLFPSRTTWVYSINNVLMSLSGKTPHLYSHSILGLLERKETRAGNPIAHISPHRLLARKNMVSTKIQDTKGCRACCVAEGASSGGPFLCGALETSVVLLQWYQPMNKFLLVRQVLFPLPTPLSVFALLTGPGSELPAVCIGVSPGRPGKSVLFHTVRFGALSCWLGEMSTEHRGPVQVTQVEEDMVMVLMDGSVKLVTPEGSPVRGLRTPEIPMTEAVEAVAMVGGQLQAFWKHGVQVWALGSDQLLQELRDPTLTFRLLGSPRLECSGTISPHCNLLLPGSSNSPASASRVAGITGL
Sequence of PCTK3 (Q07002 whole entry): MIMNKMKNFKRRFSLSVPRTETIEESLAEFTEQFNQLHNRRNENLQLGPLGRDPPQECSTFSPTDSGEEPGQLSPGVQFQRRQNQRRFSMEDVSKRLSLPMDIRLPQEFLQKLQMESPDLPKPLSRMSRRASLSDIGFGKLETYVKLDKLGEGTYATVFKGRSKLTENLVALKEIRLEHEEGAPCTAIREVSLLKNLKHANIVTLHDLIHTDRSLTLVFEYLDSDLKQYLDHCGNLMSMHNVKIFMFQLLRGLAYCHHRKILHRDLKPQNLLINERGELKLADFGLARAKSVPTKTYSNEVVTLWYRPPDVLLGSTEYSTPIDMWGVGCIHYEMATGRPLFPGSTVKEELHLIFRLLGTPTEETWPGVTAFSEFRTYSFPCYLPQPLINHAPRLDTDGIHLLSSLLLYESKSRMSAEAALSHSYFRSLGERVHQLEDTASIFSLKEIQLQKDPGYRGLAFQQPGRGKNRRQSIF
Sequence of NEK2 (P51955 whole entry): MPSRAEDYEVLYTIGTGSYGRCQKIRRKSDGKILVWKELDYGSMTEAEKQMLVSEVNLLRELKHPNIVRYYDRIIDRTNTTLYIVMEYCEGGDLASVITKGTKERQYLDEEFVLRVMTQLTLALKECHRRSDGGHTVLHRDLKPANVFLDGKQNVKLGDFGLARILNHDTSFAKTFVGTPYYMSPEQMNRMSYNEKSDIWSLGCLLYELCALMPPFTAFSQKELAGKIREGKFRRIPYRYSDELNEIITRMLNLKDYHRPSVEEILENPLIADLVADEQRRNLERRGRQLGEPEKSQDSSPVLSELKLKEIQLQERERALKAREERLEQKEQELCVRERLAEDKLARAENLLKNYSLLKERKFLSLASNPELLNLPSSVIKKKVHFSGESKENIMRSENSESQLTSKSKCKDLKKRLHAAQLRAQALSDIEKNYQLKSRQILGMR
Sequence of MYO3A (Q8NEV4 whole entry): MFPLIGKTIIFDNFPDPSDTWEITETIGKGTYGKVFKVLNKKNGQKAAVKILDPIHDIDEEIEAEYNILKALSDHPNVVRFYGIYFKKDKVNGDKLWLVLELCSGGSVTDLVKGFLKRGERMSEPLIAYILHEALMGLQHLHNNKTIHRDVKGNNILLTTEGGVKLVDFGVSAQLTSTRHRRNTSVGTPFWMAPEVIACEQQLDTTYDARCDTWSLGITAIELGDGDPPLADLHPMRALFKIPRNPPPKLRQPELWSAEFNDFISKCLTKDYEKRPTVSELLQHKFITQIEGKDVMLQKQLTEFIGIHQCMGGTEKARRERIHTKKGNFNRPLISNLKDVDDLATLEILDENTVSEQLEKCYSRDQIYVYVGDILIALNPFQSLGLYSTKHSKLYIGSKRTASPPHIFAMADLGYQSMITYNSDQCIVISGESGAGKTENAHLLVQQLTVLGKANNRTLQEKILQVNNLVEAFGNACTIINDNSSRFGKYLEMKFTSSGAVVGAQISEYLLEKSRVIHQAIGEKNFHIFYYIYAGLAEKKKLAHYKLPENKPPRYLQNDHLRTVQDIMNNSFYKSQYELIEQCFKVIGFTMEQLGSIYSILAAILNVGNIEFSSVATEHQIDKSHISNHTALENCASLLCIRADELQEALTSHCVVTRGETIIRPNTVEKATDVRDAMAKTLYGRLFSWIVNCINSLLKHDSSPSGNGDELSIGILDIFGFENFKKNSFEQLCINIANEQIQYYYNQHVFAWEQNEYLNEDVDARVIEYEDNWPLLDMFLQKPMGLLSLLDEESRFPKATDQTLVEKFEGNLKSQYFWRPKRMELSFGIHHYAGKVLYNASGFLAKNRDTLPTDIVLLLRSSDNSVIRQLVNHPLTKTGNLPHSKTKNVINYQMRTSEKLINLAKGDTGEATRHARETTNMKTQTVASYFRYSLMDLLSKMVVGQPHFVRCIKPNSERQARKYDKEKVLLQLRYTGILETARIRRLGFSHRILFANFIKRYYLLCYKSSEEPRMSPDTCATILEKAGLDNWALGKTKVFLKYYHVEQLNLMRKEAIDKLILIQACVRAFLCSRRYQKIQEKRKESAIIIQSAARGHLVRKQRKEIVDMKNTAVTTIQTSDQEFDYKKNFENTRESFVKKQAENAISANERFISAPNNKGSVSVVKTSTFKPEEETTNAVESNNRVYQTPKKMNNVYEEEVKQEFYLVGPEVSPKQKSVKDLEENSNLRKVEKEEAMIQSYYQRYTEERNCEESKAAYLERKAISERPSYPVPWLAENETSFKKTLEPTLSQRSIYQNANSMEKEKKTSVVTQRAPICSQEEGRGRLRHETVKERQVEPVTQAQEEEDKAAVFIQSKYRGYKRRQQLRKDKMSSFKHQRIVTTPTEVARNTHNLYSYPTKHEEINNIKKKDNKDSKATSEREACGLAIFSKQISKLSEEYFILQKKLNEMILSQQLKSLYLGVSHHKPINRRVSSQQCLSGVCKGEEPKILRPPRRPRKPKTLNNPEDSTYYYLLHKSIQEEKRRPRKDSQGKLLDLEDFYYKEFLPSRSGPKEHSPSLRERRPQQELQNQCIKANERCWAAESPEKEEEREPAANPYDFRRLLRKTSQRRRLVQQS
Sequence of IRAK1 (P51617 whole entry): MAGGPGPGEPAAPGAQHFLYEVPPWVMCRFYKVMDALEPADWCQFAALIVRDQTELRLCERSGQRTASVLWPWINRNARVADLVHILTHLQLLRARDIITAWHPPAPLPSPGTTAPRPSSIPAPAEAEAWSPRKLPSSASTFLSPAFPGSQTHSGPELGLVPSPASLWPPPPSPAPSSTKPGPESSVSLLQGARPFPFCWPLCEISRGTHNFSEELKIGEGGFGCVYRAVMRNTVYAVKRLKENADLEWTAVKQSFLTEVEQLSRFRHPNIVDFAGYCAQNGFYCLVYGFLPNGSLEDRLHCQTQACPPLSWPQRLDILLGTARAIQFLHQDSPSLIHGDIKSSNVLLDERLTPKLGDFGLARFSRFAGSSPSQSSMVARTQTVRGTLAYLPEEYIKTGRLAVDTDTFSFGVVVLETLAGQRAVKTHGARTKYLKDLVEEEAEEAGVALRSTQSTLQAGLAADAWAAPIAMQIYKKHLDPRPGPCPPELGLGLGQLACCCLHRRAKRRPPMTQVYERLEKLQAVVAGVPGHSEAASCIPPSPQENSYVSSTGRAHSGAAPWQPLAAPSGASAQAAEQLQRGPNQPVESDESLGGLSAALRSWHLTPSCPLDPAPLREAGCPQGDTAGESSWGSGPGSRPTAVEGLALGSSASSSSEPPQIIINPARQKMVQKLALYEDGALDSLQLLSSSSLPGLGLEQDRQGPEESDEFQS
Sequence of GRK1 (Q15835 whole entry): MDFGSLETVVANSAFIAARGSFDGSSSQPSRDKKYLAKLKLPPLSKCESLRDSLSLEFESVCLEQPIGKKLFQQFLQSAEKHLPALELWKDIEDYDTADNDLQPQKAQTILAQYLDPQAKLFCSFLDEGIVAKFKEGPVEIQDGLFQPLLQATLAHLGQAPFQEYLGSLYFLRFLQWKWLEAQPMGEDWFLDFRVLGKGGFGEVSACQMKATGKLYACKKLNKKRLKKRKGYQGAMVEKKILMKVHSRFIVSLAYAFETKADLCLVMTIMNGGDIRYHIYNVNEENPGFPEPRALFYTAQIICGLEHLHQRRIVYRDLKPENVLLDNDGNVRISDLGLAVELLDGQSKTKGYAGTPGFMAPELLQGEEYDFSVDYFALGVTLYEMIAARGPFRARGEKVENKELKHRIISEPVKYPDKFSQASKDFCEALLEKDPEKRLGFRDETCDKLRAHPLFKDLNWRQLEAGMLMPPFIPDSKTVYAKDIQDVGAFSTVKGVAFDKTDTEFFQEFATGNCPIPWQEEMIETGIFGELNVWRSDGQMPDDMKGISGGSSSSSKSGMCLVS
Sequence of p38-alpha (Q16539 whole entry): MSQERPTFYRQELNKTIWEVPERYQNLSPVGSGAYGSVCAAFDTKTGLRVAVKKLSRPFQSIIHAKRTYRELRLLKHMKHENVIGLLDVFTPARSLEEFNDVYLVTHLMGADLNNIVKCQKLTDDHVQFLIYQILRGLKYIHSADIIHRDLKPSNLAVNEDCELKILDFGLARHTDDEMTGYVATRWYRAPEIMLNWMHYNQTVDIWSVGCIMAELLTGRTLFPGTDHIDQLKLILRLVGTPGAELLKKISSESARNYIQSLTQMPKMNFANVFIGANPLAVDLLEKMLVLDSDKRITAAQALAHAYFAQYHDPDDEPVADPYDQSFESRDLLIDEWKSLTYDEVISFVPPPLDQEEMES

## CCN1CCN(Cc2ccc(Nc3nc4ccc(Oc5ccnc(NC(C)=O)c5)cc4n3C)cc2C(F)(F)F)CC1 [Compound I-2]
[1]
  remaining binding at 1 µM: 62%
[2]
  remaining binding at 1 µM: 0.8%
[3]
  remaining binding at 1 µM: 100%
[4]
  remaining binding at 1 µM: 85%
[5]
  remaining binding at 1 µM: 100%
[6]
  remaining binding at 1 µM: 98%
[7]
  remaining binding at 1 µM: 100%
[8]
  remaining binding at 1 µM: 97%
[9]
  remaining binding at 1 µM: 82%
[10]
  remaining binding at 1 µM: 100%
[11]
  remaining binding at 1 µM: 69%
[12]
  remaining binding at 1 µM: 65%
[13]
  remaining binding at 1 µM: 79%
[14]
  remaining binding at 1 µM: 22%
[15]
  remaining binding at 1 µM: 0.2%
[16]
  remaining binding at 1 µM: 21%
[17]
  remaining binding at 1 µM: 78%
[18]
  remaining binding at 1 µM: 16%
[19]
  remaining binding at 1 µM: 98%
[20]
  remaining binding at 1 µM: 83%
[21]
  remaining binding at 1 µM: 100%
[22]
  remaining binding at 1 µM: 96%
[23]
  remaining binding at 1 µM: 62%
[24]
  remaining binding at 1 µM: 84%
[25]
  remaining binding at 1 µM: 97%
[26]
  remaining binding at 1 µM: 94%
[27]
  remaining binding at 1 µM: 91%
[28]
  remaining binding at 1 µM: 78%
[29]
  remaining binding at 1 µM: 85%
[30]
  remaining binding at 1 µM: 78%
[31]
  remaining binding at 1 µM: 91%
[32]
  remaining binding at 1 µM: 81%
[33]
  remaining binding at 1 µM: 92%
[34]
  remaining binding at 1 µM: 100%
[35]
  remaining binding at 1 µM: 0%
[36]
  remaining binding at 1 µM: 92%
[37]
  remaining binding at 1 µM: 79%
[38]
  remaining binding at 1 µM: 62%
[39]
  remaining binding at 1 µM: 73%
[40]
  remaining binding at 1 µM: 100%
[41]
  remaining binding at 1 µM: 92%

## CCN1CCN(Cc2ccc(Nc3nc4ccc(Oc5ccnc(NC(C)=O)c5)c(C)c4n3C)cc2C(F)(F)F)CC1 [Compound I-6, N-(4-(2-(4-((4-ethylpiperazin-1-yl)methyl)-3-(trifluoromethyl)phenylamino)-1,7-dimethyl-1H-benzo[d]imidazol-6-yloxy)pyridin-2-yl)acetamide]
[1]
  remaining binding at 1 µM: 87%
[2]
  remaining binding at 1 µM: 1.8%
[3]
  remaining binding at 1 µM: 89%
[4]
  remaining binding at 1 µM: 95%
[5]
  remaining binding at 1 µM: 68%
[6]
  remaining binding at 1 µM: 94%
[7]
  remaining binding at 1 µM: 82%
[8]
  remaining binding at 1 µM: 97%
[9]
  remaining binding at 1 µM: 85%
[10]
  remaining binding at 1 µM: 91%
[11]
  remaining binding at 1 µM: 56%
[12]
  remaining binding at 1 µM: 91%
[13]
  remaining binding at 1 µM: 38%
[14]
  remaining binding at 1 µM: 44%
[15]
  remaining binding at 1 µM: 0%
[16]
  remaining binding at 1 µM: 0.45%
[17]
  remaining binding at 1 µM: 86%
[18]
  remaining binding at 1 µM: 0.95%
[19]
  remaining binding at 1 µM: 83%
[20]
  remaining binding at 1 µM: 93%
[21]
  remaining binding at 1 µM: 100%
[22]
  remaining binding at 1 µM: 99%
[23]
  remaining binding at 1 µM: 97%
[24]
  remaining binding at 1 µM: 79%
[25]
  remaining binding at 1 µM: 91%
[26]
  remaining binding at 1 µM: 97%
[27]
  remaining binding at 1 µM: 35%
[28]
  remaining binding at 1 µM: 76%
[29]
  remaining binding at 1 µM: 97%
[30]
  remaining binding at 1 µM: 100%
[31]
  remaining binding at 1 µM: 90%
[32]
  remaining binding at 1 µM: 93%
[33]
  remaining binding at 1 µM: 89%
[34]
  remaining binding at 1 µM: 100%
[35]
  remaining binding at 1 µM: 0.1%
[36]
  remaining binding at 1 µM: 75%
[37]
  remaining binding at 1 µM: 92%
[38]
  remaining binding at 1 µM: 93%
[39]
  remaining binding at 1 µM: 100%
[40]
  remaining binding at 1 µM: 56%
[41]
  remaining binding at 1 µM: 44%
